We go through ten compounds from PubChem BioAssay (NCI).

Some test systems named below: SK-OV-3 ovarian; 786-0 renal; UACC-62 melanoma; SNB-19 CNS; OVCAR-5 ovarian; T-47D breast; BT-549 breast; HT29 colon; OVCAR-3 ovarian.
Common to all, as to experiment: inhibition of tumour cell growth, NCI panel, 48 h

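Values below derive from 48-hour exposures of cells grown in 96-well plates, with endpoints linearly interpolated between the two concentrations bracketing the appropriate inhibition level. GI50 is the concentration that inhibits growth by half. Definition used: TGI = concentration required for complete inhibition of growth.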 Some results are limits rather than exact numbers.

As to `N=C(N)c1ccc(OCc2cccc(COc3ccc(C(=N)N)cc3)c2)cc1`, the GI50 in the assay on SK-OV-3 ovarian was 18.4 µM; in the assay with 786-0 renal it was 4.56 µM; in the assay with UACC-62 melanoma, 2.17 µM; in the assay with SNB-19 CNS it was 5.75 µM; in the assay on OVCAR-5 ovarian it was 29.1 µM; with T-47D breast, 26.9 µM. Moreover, the GI50 in the assay on BT-549 breast was 3.41 µM; in the assay with HT29 colon, 7.64 µM. The TGI in the assay on SK-OV-3 ovarian is 50.9 µM; in the assay with 786-0 renal, 15.1 µM; with UACC-62 melanoma, 7.99 µM; in the assay with SNB-19 CNS, over 100 µM; with OVCAR-5 ovarian it was over 100 µM; with T-47D breast, over 100 µM. Besides, the TGI with BT-549 breast is 9.37 µM; in the assay on HT29 colon it was over 100 µM.
Regarding `COc1ccc(C(=O)c2cc(OC)c(OC)c(OC)c2)cc1`, the TGI in the assay with SK-OV-3 ovarian is over 13.7 µM; in the assay on 786-0 renal, over 79.2 µM; with UACC-62 melanoma, over 9.77 µM; with SNB-19 CNS it was over 32.7 µM; with OVCAR-5 ovarian it was over 100 µM; in the assay on T-47D breast, 66.7 µM. In addition, the TGI in the assay with BT-549 breast was over 100 µM; with HT29 colon, over 100 µM; in the assay on OVCAR-3 ovarian it was 0.283 µM.
Turning to `CC[C@]1(O)CC(OC2CC(N(C)C)C(O)C(C)O2)c2c(cc3c(c2O)C(=O)c2c(O)cccc2C3=O)[C@@H]1C(=O)OC` (stereo partly specified), the TGI was found to be 2.18 µM in the assay on SK-OV-3 ovarian; 5.58 µM in the assay on 786-0 renal; 0.904 µM in the assay on UACC-62 melanoma; 7.03 µM with SNB-19 CNS; 13.9 µM with OVCAR-5 ovarian; 5.54 µM with T-47D breast. The TGI is 4.97 µM with BT-549 breast, 5.09 µM in the assay with HT29 colon and 5.67 µM in the assay with OVCAR-3 ovarian.
With `Nc1c(C(=O)c2cccc(CCCN3CCOCC3)c2)cnn1-c1ccc(F)cc1`, the GI50 in the assay with SK-OV-3 ovarian was over 25 µM; in the assay with 786-0 renal, over 25 µM; in the assay with UACC-62 melanoma, over 25 µM; in the assay on SNB-19 CNS it was over 25 µM; with OVCAR-5 ovarian, over 25 µM; in the assay on T-47D breast, over 23.7 µM. The GI50 in the assay with BT-549 breast, in the assay on HT29 colon and in the assay with OVCAR-3 ovarian was over 25 µM in each case. Moreover, the TGI in the assay with SK-OV-3 ovarian, with 786-0 renal, in the assay on UACC-62 melanoma, in the assay with SNB-19 CNS, in the assay on OVCAR-5 ovarian and in the assay on T-47D breast was over 25 µM throughout. The TGI with BT-549 breast, in the assay with HT29 colon and in the assay with OVCAR-3 ovarian was over 25 µM throughout.
Consider `NC(=O)NNCc1ccccc1`, for which the TGI in the assay with SK-OV-3 ovarian, in the assay on 786-0 renal, in the assay with UACC-62 melanoma, in the assay on SNB-19 CNS, in the assay with OVCAR-5 ovarian and in the assay on T-47D breast was over 100 µM throughout. The TGI in the assay with BT-549 breast, with HT29 colon and with OVCAR-3 ovarian was over 100 µM each time.
For the compound `CCCCCCCCCCCCNC(C)=O`, the TGI with SK-OV-3 ovarian is 29.1 µM; in the assay on 786-0 renal it was 32.5 µM; in the assay with UACC-62 melanoma, 30.2 µM; with SNB-19 CNS, 31.2 µM; with T-47D breast it was 66.3 µM; in the assay on BT-549 breast it was 30.8 µM. Also, the TGI with HT29 colon amounted to 33.6 µM; in the assay on OVCAR-3 ovarian, 40.1 µM.
Turning to `C=C1C(=O)O[C@H]2[C@H]1CC/C(CNC(=O)Cc1c[nH]c3ccccc13)=C\CC[C@@]1(C)O[C@@H]21`, the GI50 with SK-OV-3 ovarian is 17.6 µM; in the assay with 786-0 renal, 1.22 µM; in the assay with SNB-19 CNS, 15 µM; with OVCAR-5 ovarian it was 10.2 µM; with T-47D breast, 1.07 µM; in the assay with BT-549 breast, 3.04 µM. The GI50 in the assay on HT29 colon was 0.451 µM; in the assay with OVCAR-3 ovarian, 0.386 µM. For the same compound, the TGI in the assay with SK-OV-3 ovarian was 31.7 µM; in the assay with 786-0 renal, 4.98 µM; with SNB-19 CNS it was 35.2 µM; with OVCAR-5 ovarian it was 24.2 µM; with T-47D breast, 8.16 µM; with BT-549 breast, 15.8 µM. Further, the figures for the TGI with HT29 colon and in the assay with OVCAR-3 ovarian were 11.1 µM and 1.44 µM, respectively.
In the case of `OC(c1cccc(-n2ccc(C(F)(F)F)n2)c1)c1cnccc1NC1CCCCCC1` (stereo unspecified), the GI50 with 786-0 renal was 1.72 µM; in the assay with UACC-62 melanoma, 1.74 µM; in the assay on SNB-19 CNS, 1.73 µM; in the assay on OVCAR-5 ovarian, 1.64 µM; in the assay with T-47D breast, 1.77 µM; in the assay on BT-549 breast, 1.63 µM. In addition, the GI50 is 1.8 µM in the assay with HT29 colon and 1.76 µM in the assay on OVCAR-3 ovarian. Also, the TGI in the assay with 786-0 renal was 3.18 µM; in the assay with UACC-62 melanoma it was 3.14 µM; with SNB-19 CNS, 3.24 µM; with OVCAR-5 ovarian it was 3.01 µM; with T-47D breast it was 4.23 µM; in the assay with BT-549 breast it was 3.06 µM. Moreover, the TGI was 4.33 µM in the assay with HT29 colon and 3.22 µM in the assay on OVCAR-3 ovarian.
Turning to `COc1ccccc1NC(=O)c1sc2nc3c(cc2c1N)C(=O)CCC3`, the GI50 was 3.59 µM with SK-OV-3 ovarian; 4.05 µM with 786-0 renal; 3.99 µM in the assay with UACC-62 melanoma; 12.8 µM in the assay on SNB-19 CNS; over 100 µM in the assay on T-47D breast; 4.43 µM in the assay with BT-549 breast. Besides, the GI50 in the assay with OVCAR-3 ovarian is 25.3 µM. Besides, the TGI with SK-OV-3 ovarian, in the assay with 786-0 renal, with UACC-62 melanoma, in the assay with SNB-19 CNS, with T-47D breast and in the assay on BT-549 breast was over 100 µM throughout. Also, the TGI with OVCAR-3 ovarian was over 100 µM.
With `CCN(CC)CCOCC[C@H]1CC[C@H]2[C@@H]3[C@H](C)Cc4cc(OS(N)(=O)=O)ccc4[C@H]3CC[C@]12C`, the GI50 in the assay on SK-OV-3 ovarian was 1.49 µM; in the assay with 786-0 renal it was 1.28 µM; in the assay on SNB-19 CNS, 1.71 µM; with OVCAR-5 ovarian, 2.52 µM; in the assay on T-47D breast, 0.277 µM; with BT-549 breast it was 1.67 µM. Further, the GI50 with HT29 colon is 0.244 µM; in the assay with OVCAR-3 ovarian, 1.21 µM. The TGI in the assay with SK-OV-3 ovarian came to 3.2 µM; in the assay on 786-0 renal it was 2.6 µM; in the assay with SNB-19 CNS, 3.17 µM; in the assay with OVCAR-5 ovarian, 7.34 µM; in the assay with T-47D breast, 2.94 µM; in the assay on BT-549 breast it was 3.99 µM. For the same compound, the results for the TGI in the assay on HT29 colon and in the assay with OVCAR-3 ovarian were 1.03 µM and 2.46 µM, respectively.
